In patent publication US20060264498A1, “Anti-obesity agent” (Kyowa Hakko Kogyo Co., Ltd., priority 2003, published 2006):

Tested on: KK-Ay/Ta Jc1 mice
Test: Body weight increase per ingested feed amount in obesity type 2 diabetic model mice
Type: in vivo
Settings: KK-Ay/Ta Jc1 male mice, 1% by weight in CE-2 feed; for Body Weight Increase/ Ingested Feed Amount (%): free intake, initial day to 17th day, mean value ± standard error (n=5); for body weight increase per ingested feed amount as compared with group 1 (CE-2 feed only): 17 days, t-test
Source text: KK-Ay/Ta Jc1 mice (Clea Japan, Inc.; male; six weeks age)(15 mice) of an obesity type 2 diabetic model were divided into three groups each comprising five and named group 1 to group 3.
The mice of the groups 1 to 3 were made free to take feed and water. A commercially available feed CE-2 (manufactured by Clea Japan, Inc.) was ingested to the mice of group 1. CE-2 to which 1% by weight of trans-4-hydroxy-L-proline (manufactured by Kyowa Hakko Kogyo; hereinafter, abbreviated as the hydroxyproline) was added was ingested to the mice of group 2. CE-2 to which 1% by weight of trans-N-acetyl-4-hydroxy-L-proline (manufactured by Kyowa Hakko Kogyo; hereinafter, abbreviated as the N-acetylhydroxyproline) was added was ingested to the mice of group 3.
Body weight on the initial day of the test and on the 17th day and amount of the ingested feed from the initial day of the test to the 17th day were measured. As an index for the progress of obesity, a body weight increase during the test period for the total ingested feed amount during the test period was calculated for each mouse. The value was shown in terms of mean value±standard error (n=5) and statistic ratio of risk (p value) was determined by a t-test.

Row | SMILES | Body Weight Increase/ Ingested Feed Amount (%) | body weight increase per ingested feed amount as compared with group 1 (CE-2 feed only)
1 | CC(=O)N1C[C@H](O)C[C@H]1C(=O)O [N-acetylhydroxyproline, trans-N-acetyl-4-hydroxy-L-proline] | 4.2 ± 0.6 % | significantly low
2 | O=C(O)[C@@H]1C[C@@H](O)CN1 [hydroxyproline, trans-4-hydroxy-L-proline] | 5.8 ± 0.4% | tended to show low value
